Converted amounts (≈) assume the structure as drawn.
What was measured:
Assay in all cases: Antifungal MIC, broth dilution
[1] = system: A. fumigatus ATCC 46645; type: cell-based; conditions: end point 48 hours; for MIC50: Aspergillus fumigatus, ATCC46645, RPMI 1640 with MOPS, read-out: Afm01 MIC50
[2] = system: C. glabrata ATCC 90030; type: cell-based; conditions: end point 48 hours; for MIC50: Nakaseomyces glabratus, ATCC90030, RPMI 1640 with MOPS, read-out: Cg01 MIC50
[3] = system: A. niger ATCC 16404; type: cell-based, Aspergillus niger; conditions: end point 48 hours; for MIC50: Aspergillus niger, ATCC16404, RPMI 1640 with MOPS, read-out: An01 MIC50
Procedure: (§1) The compounds of Formula 1 were tested for antifungal activity against Candida albicans, Aspergillus niger and Fusarium proliferatum. In vitro evaluation of antifungal activity was performed by determining the minimum inhibitory concentration (MIC) following standard methods (CLSI: Reference method for broth dilution antifungal susceptibility testing of yeasts; Approved standard, second edition M27-A2, 2002; CLSI: Reference method for broth dilution antifungal susceptibility testing of filamentous fungi; Approved standard M38-A, 2002). Anti-fungal susceptibility testing of these anti-fungal compounds was done by broth dilution method using RPMI 1640 medium with MOPS buffer. Known anti-fungal agents like fluconazole and amphotericin-B were used as positive control. End points were determined after 48 hours visually and by using spectrophotometer wherever necessary. Different dilutions were tried and various sets of experiments performed. The activity parameters are enumerated in Table 5.

[4] = system: C. neoformans ATCC 34664; type: cell-based; conditions: end point 48 hours; for MIC50: Cryptococcus neoformans, ATCC34664, RPMI 1640 with MOPS, read-out: Cn01 MIC50
[5] = system: F. proliferatum ATCC 10052; type: cell-based, Fusarium proliferatum; conditions: end point 48 hours; for MIC50: Fusarium proliferatum, ATCC10052, RPMI 1640 with MOPS, read-out: Fp01 MIC50
Procedure: as §1

[6] = system: C. krusei ATCC 6258; type: cell-based; conditions: end point 48 hours; for MIC50: Pichia kudriavzevii, ATCC6258, RPMI 1640 with MOPS, read-out: Ck01 MIC50
[7] = system: C. albicans ATCC 24433; type: cell-based, Candida albicans; conditions: end point 48 hours; for MIC80 / MIC50: Candida albicans, ATCC24433, RPMI 1640 with MOPS; for MIC80: read-out: Ca01 A: MIC80; for MIC50: read-out: Ca01 B: MIC50
Procedure: as §1

[8] = system: C. tropicalis ATCC 750; type: cell-based; conditions: end point 48 hours; for MIC50: Candida tropicalis, ATCC750, RPMI 1640 with MOPS, read-out: Ct01 MIC50

With `CCCCCC(=O)/C=C/c1ccc(OCC(O)(Cn2cncn2)c2ccc(F)cc2F)cc1` (stereo not drawn) [Compound 1A-26] the MIC50 [1] was greater than 4 µg/mL, the MIC50 [2] was 0.06 µg/mL (≈ 0.132 µM) and the MIC50 [3] was greater than 4 µg/mL. For the same compound, the MIC50 [4] was 0.5 µg/mL (≈ 1.1 µM), the MIC50 [5] was greater than 4 µg/mL and the MIC50 [6] was 1 µg/mL (≈ 2.2 µM). For the same compound, the MIC80 [7] was 0.25 µg/mL (≈ 0.549 µM), the MIC50 [7] was 0.12 µg/mL (≈ 0.263 µM) and the MIC50 [8] was 2 µg/mL (≈ 4.39 µM).

`OC(/C=C/c1ccc(Cl)cc1Cl)c1ccc(OCC(O)(Cn2cncn2)c2ccc(F)cc2F)cc1` (stereo not drawn) [Compound 1C-1, (E)-3-(2,4-dichlorophenyl)-1-(4-(2-(2,4-difluorophenyl)-2-hydroxy-3-(1H-1,2,4-triazol-1-yl)propoxy)phenyl)prop-2-en-1-ol] showed an MIC50 [1] greater than 4 µg/mL, an MIC50 [2] of 0.25 µg/mL (≈ 0.47 µM) and an MIC50 [3] greater than 4 µg/mL. The MIC50 [4] was 0.5 µg/mL (≈ 0.939 µM), the MIC50 [5] was greater than 4 µg/mL and the MIC50 [6] was 4 µg/mL (≈ 7.51 µM). The MIC80 [7] was 0.5 µg/mL (≈ 0.939 µM), the MIC50 [7] was 0.5 µg/mL (≈ 0.939 µM) and the MIC50 [8] was 1 µg/mL (≈ 1.88 µM).

`C=CCOC(COc1ccc(C(=O)/C=C/c2ccc(Cl)cc2Cl)cc1)(Cn1cncn1)c1ccc(F)cc1F` (stereo not drawn) [Compound 1A-18, (E)-1-(4-(2-(Allyloxy)-2-(2,4-difluorophenyl)-3-(1H-1,2,4-triazol-1-yl)propoxy)phenyl)-3-(2,4-dichlorophenyl)prop-2-en-1-one] gave an MIC50 [1] greater than 4 µg/mL, an MIC50 [2] greater than 4 µg/mL and an MIC50 [3] greater than 4 µg/mL. It also gave an MIC50 [4] greater than 4 µg/mL, an MIC50 [5] greater than 4 µg/mL and an MIC50 [6] greater than 4 µg/mL. It also gave an MIC80 [7] greater than 4 µg/mL, an MIC50 [7] greater than 4 µg/mL and an MIC50 [8] greater than 4 µg/mL.

`O=C(/C=C/c1c2ccccc2cc2ccccc12)c1ccc(OCC(O)(Cn2cncn2)c2ccc(F)cc2F)cc1` (stereo not drawn) [Compound 1A-15] showed an MIC50 [1] greater than 2 µg/mL, an MIC50 [2] of 2 µg/mL (≈ 3.56 µM) and an MIC50 [3] greater than 2 µg/mL. For the same compound, the MIC50 [4] was 2 µg/mL (≈ 3.56 µM), the MIC50 [5] was greater than 2 µg/mL and the MIC50 [6] was greater than 2 µg/mL. It also gave an MIC80 [7] greater than 2 µg/mL, an MIC50 [7] greater than 2 µg/mL and an MIC50 [8] greater than 2 µg/mL.

Compound `COc1ccccc1/C=C/C(=O)c1ccc(OCC(O)(Cn2cncn2)c2ccc(F)cc2F)cc1` (stereo not drawn) [Compound 1A-3] has an MIC50 [1] greater than 8 µg/mL, an MIC50 [2] of 0.5 µg/mL (≈ 1.02 µM) and an MIC50 [3] greater than 8 µg/mL. The MIC50 [4] was 8 µg/mL (≈ 16.3 µM), the MIC50 [5] was greater than 8 µg/mL and the MIC50 [6] was greater than 8 µg/mL. It also gave an MIC80 [7] of 0.5 µg/mL (≈ 1.02 µM), an MIC50 [7] of 0.25 µg/mL (≈ 0.509 µM) and an MIC50 [8] of 2 µg/mL (≈ 4.07 µM).

For `O=C(/C=C/c1ccc(Cl)cc1Cl)c1ccc(OCC(O)(Cn2cncn2)c2ccc(F)cc2F)cc1` (stereo not drawn) [Compound 1A-7, (E)-3-(2,4-dichlorophenyl)-1-(4-(2-(2,4-difluorophenyl)-2-hydroxy-3-(1H-1,2,4-triazol-1-yl)propoxy)phenyl)prop-2-en-1-one], the MIC50 [1] was greater than 4 µg/mL, the MIC50 [2] was 0.5 µg/mL (≈ 0.943 µM) and the MIC50 [3] was greater than 4 µg/mL. It also gave an MIC50 [4] of 2 µg/mL (≈ 3.77 µM), an MIC50 [5] greater than 4 µg/mL and an MIC50 [6] of 2 µg/mL (≈ 3.77 µM). For the same compound, the MIC80 [7] was 0.25 µg/mL (≈ 0.471 µM), the MIC50 [7] was 0.25 µg/mL (≈ 0.471 µM) and the MIC50 [8] was 1 µg/mL (≈ 1.89 µM).

`O=C(/C=C/c1ccc(Cl)cc1)c1ccc(OC[C@](O)(Cn2cncn2)c2ccc(F)cc2F)cc1` [R-(−)-1A-6, R-(−)-(E)-3-(4-chlorophenyl)-1-(4-(2-(2,4-difluorophenyl)-2-hydroxy-3-(1H-1,2,4-triazol-1-yl)propoxy)phenyl)prop-2-en-1-one] was tested, and the MIC50 [1] was greater than 4 µg/mL, the MIC50 [2] was 0.12 µg/mL (≈ 0.242 µM) and the MIC50 [3] was greater than 4 µg/mL. For the same compound, the MIC50 [4] was 0.25 µg/mL (≈ 0.504 µM), the MIC50 [5] was greater than 4 µg/mL and the MIC50 [6] was 1 µg/mL (≈ 2.02 µM). For the same compound, the MIC80 [7] was 0.12 µg/mL (≈ 0.242 µM), the MIC50 [7] was 0.06 µg/mL (≈ 0.121 µM) and the MIC50 [8] was 0.5 µg/mL (≈ 1.01 µM).

With `CCCCCCCCOc1ccc(C(=O)/C=C/c2ccc(OCC(O)(Cn3cncn3)c3ccc(F)cc3F)cc2)cc1` (stereo not drawn) [Compound 1A-24] the “Afm01 MIC50” value ([1]; RPMI 1640 with MOPS) was greater than 4 µg/mL, the “Cg01 MIC50” value ([2]; RPMI 1640 with MOPS) was 0.12 µg/mL and the “An01 MIC50” value ([3]; RPMI 1640 with MOPS) was greater than 4 µg/mL. The “Cn01 MIC50” value ([4]; RPMI 1640 with MOPS) was greater than 4 µg/mL, the “Fp01 MIC50” value ([5]; RPMI 1640 with MOPS) was greater than 4 µg/mL and the “Ck01 MIC50” value ([6]; RPMI 1640 with MOPS) was greater than 4 µg/mL. For the same compound, the “Ca01 A: MIC80” value ([7]; RPMI 1640 with MOPS) was 8 µg/mL, the “Ca01 B: MIC50” value ([7]; RPMI 1640 with MOPS) was 4 µg/mL and the “Ct01 MIC50” value ([8]; RPMI 1640 with MOPS) was greater than 4 µg/mL.

`COc1ccc(/C=C/C(=O)c2ccc(OC[C@](O)(Cn3cncn3)c3ccc(F)cc3F)cc2)cc1` [R-(−)-1A-2] gave an MIC50 [1] greater than 4 µg/mL, an MIC50 [2] of 0.06 µg/mL (≈ 0.122 µM) and an MIC50 [3] of 2 µg/mL (≈ 4.07 µM). The MIC50 [4] was 0.5 µg/mL (≈ 1.02 µM), the MIC50 [5] was greater than 4 µg/mL and the MIC50 [6] was 2 µg/mL (≈ 4.07 µM). For the same compound, the MIC80 [7] was 0.12 µg/mL (≈ 0.244 µM), the MIC50 [7] was 0.06 µg/mL (≈ 0.122 µM) and the MIC50 [8] was 0.25 µg/mL (≈ 0.509 µM).

Reference: patent US9512087B2, “Hybrid molecules containing pharmacophores of fluconazole as antifungal agents and their preparation” (Council for Scientific & Industrial Research, priority 2011, dated 2016)
